Measured values taken from PubChem BioAssay AID1224918.

System: MCF7 antiproliferative assay
Experiment: PubChem AID 1224918

## COc1cc(-c2nn(CCN3CCC(N(C)C)CC3)c3ncnc(N)c23)ccc1NC(=O)OC(C)(C)C
  EC50: 70 nM
